{
  "source": "the NIST ThermoML archive (doi:10.1021/je050231r)",
  "details": "Liquid; for mass density: 293.2 K, 101.33 kPa",
  "note": "Numbers after ± are expanded uncertainties.",
  "data": [
    {"smiles": "Fc1ccccc1", "note": "[fluorobenzene]", "values": [
      {"measurement": "mass density", "result": "1022.27 ± 0.27", "unit": "kg/m3"},
      {"measurement": "vapor or sublimation pressure", "setting": "358.4 K", "result": "101.94 ± 5.1", "unit": "kPa"}
    ]},
    {"smiles": "BrCCBr", "note": "[1,2-dibromoethane]", "values": [
      {"measurement": "mass density", "result": "2179.24 ± 2.4", "unit": "kg/m3"},
      {"measurement": "vapor or sublimation pressure", "setting": "404.6 K", "result": "101.81 ± 0.62", "unit": "kPa"},
      {"measurement": "vapor or sublimation pressure", "setting": "405.4 K", "result": "102.09 ± 0.52", "unit": "kPa"},
      {"measurement": "vapor or sublimation pressure", "setting": "405.5 K", "result": "102.11 ± 0.52", "unit": "kPa"},
      {"measurement": "vapor or sublimation pressure", "setting": "405.8 K", "result": "101.86 ± 0.98", "unit": "kPa"}
    ]},
    {"smiles": "Brc1ccccc1", "note": "[bromobenzene]", "values": [
      {"measurement": "mass density", "result": "1495.23 ± 1.2", "unit": "kg/m3"},
      {"measurement": "vapor or sublimation pressure", "setting": "429.4 K", "result": "101.76 ± 2.6", "unit": "kPa"}
    ]},
    {"smiles": "Cc1ccccc1", "note": "[toluene]", "values": [
      {"measurement": "mass density", "result": "866.81 ± 0.28", "unit": "kg/m3"},
      {"measurement": "vapor or sublimation pressure", "setting": "384.9 K", "result": "102.09 ± 5.1", "unit": "kPa"}
    ]},
    {"smiles": "c1ccccc1", "note": "[benzene]", "values": [
      {"measurement": "mass density", "result": "876.53 ± 0.19", "unit": "kg/m3"},
      {"measurement": "vapor or sublimation pressure", "setting": "354.4 K", "result": "101.77 ± 5.1", "unit": "kPa"}
    ]}
  ]
}
